Test results as given in ChEMBL document CHEMBL6153122, “Antimycobacterial Activities of the Zanthoxylum leprieurii Metabolite Adubangoamide and Non-Natural Fagaramide Analogues” (2025).
In brackets after ≈: the same amount, converted by molar mass.

System: Mycobacterium tuberculosis
Assay: Antimycobacterial activity against multidrug-resistant Mycobacterium tuberculosis 375 by microplate Alamar blue assay
Type: functional

SMILES | MIC [µM]
O=C(/C=C/c1ccc2c(c1)OCO2)NCc1ccc(N2CCC(c3ccc(F)cc3)CC2)cc1 | 545 (≈ 250 µg/mL)
O=C(/C=C/c1ccc2c(c1)OCO2)NCc1ccc(C(F)(F)F)cc1F | 1020 (≈ 375 µg/mL)
CC(C)=CCOc1ccc(/C=C/C(=O)NCC(C)C)cc1 | 1200 (≈ 345 µg/mL)
CN(C)c1ccc(CNC(=O)/C=C/c2ccc3c(c2)OCO3)cc1 | 3560 (≈ 1150 µg/mL)
COc1cccc(CNC(=O)/C=C/c2ccc3c(c2)OCO3)c1 | 803 (≈ 250 µg/mL)
O=C(/C=C/c1ccc2c(c1)OCO2)NCc1cc(F)cc(F)c1 | 788 (≈ 250 µg/mL)
O=C(/C=C/c1ccc2c(c1)OCO2)NCc1ccccc1Cl | 792 (≈ 250 µg/mL)
O=C(/C=C/c1ccc2c(c1)OCO2)NCc1ccccc1 | 667 (≈ 188 µg/mL)
O=C(/C=C/c1ccc2c(c1)OCO2)NCc1ccc(N2CCC(C(F)(F)F)CC2)cc1 | 2310 (≈ 1000 µg/mL)

System: Mycobacterium tuberculosis
Assay: Antimycobacterial activity against multidrug-resistant Mycobacterium tuberculosis 375
Type: functional

SMILES | MIC [µM]
CC(C)CNC(=O)/C=C/c1ccc2c(c1)OCO2 [FOGARAMIDE] | 1010 (≈ 250 µg/mL)
